Activity calls are given as the source filed them. No cut-off for these calls is given here.
Legend:
[1] = target: T1, Histone deacetylase 7 (Homo sapiens) (UniProt Q8WUI4); experiment: Inhibition of HDAC7 (unknown origin) at 20 uM
T1 sequence (whole entry): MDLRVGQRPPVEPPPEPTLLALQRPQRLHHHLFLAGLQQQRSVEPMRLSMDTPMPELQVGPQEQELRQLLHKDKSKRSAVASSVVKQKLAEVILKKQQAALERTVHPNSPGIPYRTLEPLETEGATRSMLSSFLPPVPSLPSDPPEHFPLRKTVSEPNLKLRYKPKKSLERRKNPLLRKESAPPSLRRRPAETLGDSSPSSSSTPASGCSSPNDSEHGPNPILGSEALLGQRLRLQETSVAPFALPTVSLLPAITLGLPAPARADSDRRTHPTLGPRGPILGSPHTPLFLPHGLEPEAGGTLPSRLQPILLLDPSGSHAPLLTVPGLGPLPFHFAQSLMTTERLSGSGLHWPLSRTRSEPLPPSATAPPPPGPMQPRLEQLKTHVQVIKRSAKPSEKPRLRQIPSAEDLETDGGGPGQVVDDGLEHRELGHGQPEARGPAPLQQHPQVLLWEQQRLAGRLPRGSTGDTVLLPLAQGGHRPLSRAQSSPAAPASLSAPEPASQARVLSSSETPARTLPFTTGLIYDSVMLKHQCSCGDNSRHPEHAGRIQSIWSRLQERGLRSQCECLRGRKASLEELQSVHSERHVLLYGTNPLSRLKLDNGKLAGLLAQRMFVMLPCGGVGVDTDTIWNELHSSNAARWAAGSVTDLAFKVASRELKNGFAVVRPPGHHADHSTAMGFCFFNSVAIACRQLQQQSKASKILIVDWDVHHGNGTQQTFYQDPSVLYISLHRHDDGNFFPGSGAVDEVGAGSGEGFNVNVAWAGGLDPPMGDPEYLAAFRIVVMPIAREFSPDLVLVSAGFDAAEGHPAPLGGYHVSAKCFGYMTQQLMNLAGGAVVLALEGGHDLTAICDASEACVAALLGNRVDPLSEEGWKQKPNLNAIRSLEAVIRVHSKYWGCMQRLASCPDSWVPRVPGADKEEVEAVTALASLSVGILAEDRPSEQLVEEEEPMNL

[2] = target: Histone deacetylase 5 (Homo sapiens) (UniProt Q9UQL6); experiment: Inhibition of HDAC5 (unknown origin) at 20 uM
Histone deacetylase 8 = target: T2, Histone deacetylase 8 (Homo sapiens, UniProt Q9BY41); experiment: Inhibition of HDAC8 (unknown origin)
T2 sequence (Q9BY41 whole entry): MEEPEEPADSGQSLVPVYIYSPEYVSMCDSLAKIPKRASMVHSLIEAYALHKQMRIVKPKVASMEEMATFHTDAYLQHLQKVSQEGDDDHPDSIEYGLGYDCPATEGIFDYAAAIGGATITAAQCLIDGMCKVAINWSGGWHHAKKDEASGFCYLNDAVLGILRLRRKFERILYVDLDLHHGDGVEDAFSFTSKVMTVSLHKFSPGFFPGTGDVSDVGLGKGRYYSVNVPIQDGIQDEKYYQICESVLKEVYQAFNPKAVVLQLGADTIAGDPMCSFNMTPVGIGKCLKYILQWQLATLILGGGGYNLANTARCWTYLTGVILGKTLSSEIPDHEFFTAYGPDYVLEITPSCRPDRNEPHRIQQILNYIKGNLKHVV

Chain of Histone deacetylase 5 (Homo sapiens) (Q9UQL6 whole entry): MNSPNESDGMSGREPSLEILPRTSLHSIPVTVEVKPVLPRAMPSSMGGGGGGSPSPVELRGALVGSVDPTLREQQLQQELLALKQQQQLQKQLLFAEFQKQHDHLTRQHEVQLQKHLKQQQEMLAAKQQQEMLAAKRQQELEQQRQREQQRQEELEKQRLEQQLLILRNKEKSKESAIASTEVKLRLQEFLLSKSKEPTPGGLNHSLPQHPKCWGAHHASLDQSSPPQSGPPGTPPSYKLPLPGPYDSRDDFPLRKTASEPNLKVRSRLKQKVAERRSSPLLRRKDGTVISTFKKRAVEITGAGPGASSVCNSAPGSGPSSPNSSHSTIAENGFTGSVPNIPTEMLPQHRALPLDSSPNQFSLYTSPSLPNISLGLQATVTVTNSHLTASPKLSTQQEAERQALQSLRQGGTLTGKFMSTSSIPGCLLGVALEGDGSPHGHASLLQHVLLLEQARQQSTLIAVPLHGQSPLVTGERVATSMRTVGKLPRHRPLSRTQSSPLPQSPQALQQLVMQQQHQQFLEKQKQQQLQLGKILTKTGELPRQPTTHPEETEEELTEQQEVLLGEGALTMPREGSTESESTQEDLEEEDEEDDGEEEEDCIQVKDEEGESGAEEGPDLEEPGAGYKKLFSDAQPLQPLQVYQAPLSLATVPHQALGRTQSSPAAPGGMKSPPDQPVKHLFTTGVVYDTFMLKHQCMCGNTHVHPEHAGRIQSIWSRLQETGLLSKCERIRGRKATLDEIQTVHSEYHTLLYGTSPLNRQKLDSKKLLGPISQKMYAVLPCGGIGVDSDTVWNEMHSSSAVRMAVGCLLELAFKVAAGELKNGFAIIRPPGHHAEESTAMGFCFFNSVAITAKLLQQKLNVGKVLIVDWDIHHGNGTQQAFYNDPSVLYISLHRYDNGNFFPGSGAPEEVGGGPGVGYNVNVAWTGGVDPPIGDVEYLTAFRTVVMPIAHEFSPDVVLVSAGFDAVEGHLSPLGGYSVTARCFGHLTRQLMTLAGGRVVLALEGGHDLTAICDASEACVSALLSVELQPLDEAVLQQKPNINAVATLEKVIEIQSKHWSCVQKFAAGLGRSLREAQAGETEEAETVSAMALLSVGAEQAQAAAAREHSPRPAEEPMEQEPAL

NC(=O)C1CCCc2c(-c3ccc(Cl)c(Cl)c3)n[nH]c21 (racemic)
inhibition [1]: inactive | inhibition [2]: inactive | IC50 (Histone deacetylase 8): > 10 µM

From ChEMBL document CHEMBL3425433, “Discovery of bicyclic pyrazoles as class III histone deacetylase SIRT1 and SIRT2 inhibitors” (Bioorg Med Chem Lett, 2015)
